Consider 49 molecules from paper PMC12069442 (Frontiers in Pharmacology, 2025).

Entries after “also recorded” stand apart in the source; their conditions may differ. Where a name gives a salt, the structure may show the parent alone.

Series [1] deals with rat liver microsomes (RLM). The series is described as follows: Inhibitor screening on ziprasidone metabolism in RLM. The following applies: 100 μM inhibitor; for Relative activity (%): 0.3 mg/mL RLM, ziprasidone 10 μM, 20 min; for suppression of the metabolism of ziprasidone: RLM. The series is classed as in vitro ADME.
Details of series [2]: method as in Ye et al., 2024. To be noted: nimodipine coadministration; ref Ye et al., 2024; cited from earlier work.
Series [3] relates to rat liver microsomes (RLM). The series is described as follows: Kinetics inhibitory assay of quercetin on ziprasidone metabolism in RLM. The series is classed as in vitro ADME.
Series [4] relates to human liver microsomes (HLM) (Homo sapiens). The series is described as follows: Kinetics inhibitory assay of quercetin on ziprasidone metabolism in HLM. To be noted: ziprasidone 2.5–20 μM, quercetin 0, 6.25, 12.5, 25 μM. The series is classed as in vitro ADME.
Sequence of human liver microsomes (HLM) (Homo sapiens) (P08684 2-503): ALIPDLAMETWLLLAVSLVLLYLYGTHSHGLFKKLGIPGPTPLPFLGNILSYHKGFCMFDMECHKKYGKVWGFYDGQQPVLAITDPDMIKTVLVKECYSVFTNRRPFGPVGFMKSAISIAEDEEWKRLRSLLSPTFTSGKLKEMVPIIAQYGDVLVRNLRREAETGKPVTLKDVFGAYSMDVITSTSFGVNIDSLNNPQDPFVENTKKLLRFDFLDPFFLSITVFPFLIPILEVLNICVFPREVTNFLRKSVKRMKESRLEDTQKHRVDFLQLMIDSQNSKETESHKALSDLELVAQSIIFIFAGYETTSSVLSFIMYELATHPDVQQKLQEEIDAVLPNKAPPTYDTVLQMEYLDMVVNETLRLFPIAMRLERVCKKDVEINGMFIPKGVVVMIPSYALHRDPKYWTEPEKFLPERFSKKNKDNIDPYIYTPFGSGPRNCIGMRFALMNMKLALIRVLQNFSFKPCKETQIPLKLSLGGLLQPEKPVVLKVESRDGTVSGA
The target in series [5] is human liver microsomes (HLM) (Homo sapiens, UniProt P08684). The description is as above. The series is classed as in vitro ADME.
Sequence of human liver microsomes (HLM) (P08684 2-503): as above
The target in a further series is CYP3A4.1 (Homo sapiens, UniProt P08684).
Sequence of CYP3A4.1 (P08684 whole entry): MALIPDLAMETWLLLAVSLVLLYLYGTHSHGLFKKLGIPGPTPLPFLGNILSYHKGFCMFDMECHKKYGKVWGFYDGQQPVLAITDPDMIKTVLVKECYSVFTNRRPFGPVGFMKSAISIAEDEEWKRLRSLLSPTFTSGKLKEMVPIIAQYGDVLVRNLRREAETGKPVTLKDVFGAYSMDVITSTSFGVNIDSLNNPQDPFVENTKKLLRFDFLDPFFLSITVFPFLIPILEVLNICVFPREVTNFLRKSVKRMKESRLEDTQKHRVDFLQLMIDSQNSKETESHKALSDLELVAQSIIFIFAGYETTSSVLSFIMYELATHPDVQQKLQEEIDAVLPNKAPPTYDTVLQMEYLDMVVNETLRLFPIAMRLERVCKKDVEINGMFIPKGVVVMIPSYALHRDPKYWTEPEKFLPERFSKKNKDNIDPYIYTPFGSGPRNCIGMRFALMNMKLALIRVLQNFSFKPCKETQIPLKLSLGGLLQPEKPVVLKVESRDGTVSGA
Where [6] appears, read: RLM, Lineweaver-Burk secondary plot.

Regarding `COc1cc(CCC(C)=O)ccc1O` [Vanillylacetone], in series [1], the “Relative activity (%)” value was 93.56 ± 3.00%.

Take `C=C1C[C@@]23CC[C@H]4[C@@](C)(CCC[C@@]4(C)C(=O)O[C@@H]4O[C@H](CO)[C@@H](O)[C@H](O)[C@H]4O)[C@@H]2CC[C@]1(O[C@@H]1O[C@H](CO)[C@@H](O)[C@H](O)[C@H]1O)C3` [Rubusoside]: the “Relative activity (%)” value in series [1] is recorded as 103.75 ± 2.05%. Same read-out and setting: the figure for `O=c1c(-c2ccc(O)cc2)coc2cc(O)ccc12` [Daidzein] is 121.70 ± 5.16%. Still for that read-out and setting: the figure for `COCCOC(=O)C1=C(C)NC(C)=C(C(=O)OC(C)C)C1c1cccc([N+](=O)[O-])c1` (stereo not drawn) [Nimodipine] is 49.68 ± 0.53%. Consider `COc1ccccc1OCCNCC(O)COc1cccc2[nH]c3ccccc3c12` (stereo not drawn) [Carvedilol], for which the “Relative activity (%)” value in series [1] was found to be 29.89 ± 3.28%. On to `CCN(CC)CC(=O)Nc1c(C)cccc1C` [Lidocaine], for which the “Relative activity (%)” value in series [1] was found to be 93.56 ± 10.94%. With `CCOC(=O)C1=C(C)NC(C)=C(C(=O)OC)C1c1cccc(Cl)c1Cl` (stereo not drawn) [Felodipine], the “Relative activity (%)” value in series [1] is given as 28.36 ± 1.67%. With `Cc1cc(O)c2c(c1)C(=O)c1cc(O)cc(O)c1C2=O` [Emodin], the “Relative activity (%)” value in series [1] amounted to 25.64 ± 3.15%. `O=C1CCC[C@@H]2[C@H]3CCCN4CCC[C@@H](CN12)[C@@H]34` [Matrine]: the “Relative activity (%)” value in series [1] was determined as 98.65 ± 1.77%. With `CCN1CCN(c2cc(-c3ccc(F)cc3)c3c(n2)CCCCCC3)CC1` [blonanserin], in series [2], the “elevation of AUC” value was “more than 2 fold” and the “elevation of Cmax” value is reported as “more than 2 fold”.

As to `COc1c(O)cc(O)c2c(=O)cc(-c3ccccc3)oc12` [Wogonin], the “Relative activity (%)” value in series [1] was found to be 80.85 ± 12.40%. Consider `CCOC(=O)C1=C(COCCN)NC(C)=C(C(=O)OC)C1c1ccccc1Cl` (stereo not drawn) [Amlodipine], for which, in series [1], the “Relative activity (%)” value is 24.44 ± 2.51%. On to `CCOc1nc2cccc(C(=O)O)c2n1Cc1ccc(-c2ccccc2-c2nnn[nH]2)cc1` [Candesartan], for which, in series [1], the “Relative activity (%)” value turned out to be 54.29 ± 3.95%.

Consider `O=c1cc(-c2ccc(O)cc2)oc2cc(O)cc(O)c12` [Apigenin], for which the “Relative activity (%)” value in series [1] is reported as 31.41 ± 2.56%. The same measure, in the same setting: under `COc1c(O[C@@H]2O[C@H](C(=O)O)[C@@H](O)[C@H](O)[C@H]2O)cc(O)c2c(=O)cc(-c3ccccc3)oc12` [Wogonoside] stands 92.55 ± 1.09%; under `Clc1cccc(Cl)c1N=C1NCCN1` [Clonidine hydrochloride], 74.70 ± 0.47%; under `COc1ccc(C(C)=O)c(O)c1` [Paeonol], 108.77 ± 3.51%.

Turning to `CCCCc1nc(Cl)c(CO)n1Cc1ccc(-c2ccccc2-c2nn[nH]n2)cc1` [Losartan], the “Relative activity (%)” value in series [1] was 74.09 ± 5.29%. Turning to `C=C[C@H]1C[N@@]2CC[C@H]1C[C@@H]2[C@@H](O)c1ccnc2ccc(OC)cc12` [Quinidine], in series [1], the “Relative activity (%)” value stood at 83.40 ± 4.78%. For `CCN(CC)CCNC(=O)c1ccc(N)cc1` [Procainamide hydrochloride], the “Relative activity (%)” value in series [1] is given as 113.37 ± 13.44%.

In the case of `O=C(/C=C/c1ccc(O)c(O)c1)O[C@@H]1C[C@](O)(C(=O)O)C[C@@H](O)[C@H]1O` [Chlorogenic acid], the “Relative activity (%)” value in series [1] is 91.52 ± 17.97%. `COc1cc2c(c(OC)c1OC)-c1c(cc(OC)c(OC)c1OC)C[C@H](C)[C@H](C)C2` [Schisandrin A]: the “Relative activity (%)” value in series [1] is on record as 69.51 ± 11.79%.

In the case of `CCCCc1oc2ccc(NS(C)(=O)=O)cc2c1C(=O)c1ccc(OCCCN(CCCC)CCCC)cc1` [Dronedarone Hydrochloride], the “Relative activity (%)” value in series [1] worked out at 23.67 ± 11.05%. On to `O=C(NC[C@H]1CN(c2ccc(N3CCOCC3=O)cc2)C(=O)O1)c1ccc(Cl)s1` [Rivaroxaban], for which the “Relative activity (%)” value in series [1] amounted to 102.37 ± 4.89%. Turning to `CC(C)(O)CNc1nc(Nc2ccnc(C(F)(F)F)c2)nc(-c2cccc(C(F)(F)F)n2)n1` [Enasidenib], in series [1], the “Relative activity (%)” value worked out at 40.44 ± 1.29%. Same read-out and setting: the figure for `COc1cc(C2Oc3cc([C@H]4Oc5cc(O)cc(O)c5C(=O)[C@@H]4O)ccc3OC2CO)ccc1O` (stereo partly drawn) [Silibinin] is 45.13 ± 1.52%. Regarding `COC(=O)[C@H](c1ccccc1Cl)N1CCc2sccc2C1` [Clopidogrel hydrogen sulfate], the “Relative activity (%)” value in series [1] is 179.48 ± 15.80%. On to Cucurbitacin B, for which the “Relative activity (%)” value in series [1] was determined as 117.16 ± 18.74%. `CCCCC1=NC2(CCCC2)C(=O)N1Cc1ccc(-c2ccccc2-c2nnn[nH]2)cc1` [Irbesartan]: the “Relative activity (%)” value in series [1] came out at 72.41 ± 4.72%. Turning to `CCCc1nc2c(C)cc(-c3nc4ccccc4n3C)cc2n1Cc1ccc(-c2ccccc2C(=O)O)cc1` [Telmisartan], the “Relative activity (%)” value in series [1] turned out to be 64.19 ± 12.39%.

Turning to `COc1cc2ncnc(Nc3ccc(F)c(Cl)c3)c2cc1OCCCN1CCOCC1` [Gefitinib], the “Relative activity (%)” value in series [1] was 36.20 ± 0.61%. Same read-out and setting: under `CCCN1CCCC[C@H]1C(=O)Nc1c(C)cccc1C` [Ropivacaine hydrochloride] stands 102.42 ± 0.84%. Turning to `CCOc1nc2cccc(C(=O)O)c2n1Cc1ccc(-c2ccccc2-c2nc(=O)o[nH]2)cc1` [Azilsartan], the “Relative activity (%)” value in series [1] worked out at 92.59 ± 5.86%. For `O=c1c(O)c(-c2cc(O)c(O)c(O)c2)oc2cc(O)cc(O)c12` [Myricetin], the “Relative activity (%)” value in series [1] is 2.64 ± 1.71%. `C[C@@H]1C(=O)O[C@H](C)[C@H]1C[C@@H](O)[C@](C)(O)[C@H]1CC[C@@]2(O)C3=CC(=O)[C@@H]4C[C@@H](O)[C@@H](O)C[C@]4(C)[C@H]3CC[C@]12C` [Cyasterone]: the “Relative activity (%)” value in series [1] is given as 83.75 ± 6.16%. For `O=C1CCc2cc(OCCCCc3nnnn3C3CCCCC3)ccc2N1` [Cilostazol], the “Relative activity (%)” value in series [1] was determined as 55.05 ± 0.99%. `O=c1c(O)c(-c2ccc(O)c(O)c2)oc2cc(O)cc(O)c12` [quercetin, Quercetin]: in series [1], the “suppression of the metabolism of ziprasidone” value was “over 80%”. Besides, the results for the α (in series [3] (RLM); in series [5]; on CYP3A4.1) were 0.96, 0.21 and 0.66, respectively. The 50% inhibitory concentration (IC50) in series [3] (RLM 0.3 mg/mL, ziprasidone 10 μM, quercetin 0–100 μM, n=3) came out at 13.8 ± 0.3 µM. Also, affinity in series [3] (setting [6]) was put at a Ki of 30.7 µM. Moreover, the results for the αKi (in series [3] (setting [6]); in series [5] (Lineweaver-Burk secondary plot); on CYP3A4.1) were 29.4 µM, 4.66 µM and 10.06 µM, respectively. The Inhibition type result in series [3] (RLM, ziprasidone 2.5–20 μM, quercetin 0, 6.5, 13, 26 μM) is “mixed inhibitory mechanism; also recorded: mixed inhibition”; in series [4] it was “mixed inhibitory mechanism; also recorded: mixed inhibition”. Turning to `O=C(O)[C@H]1O[C@@H](Oc2cc3oc(-c4ccccc4)cc(=O)c3c(O)c2O)[C@H](O)[C@@H](O)[C@@H]1O` [Baicalin], the “Relative activity (%)” value in series [1] worked out at 87.83 ± 13.63%.

`CCCCc1nc(Cl)c(CO)n1Cc1ccc(-c2ccccc2-c2nn[nH]n2)cc1` [Losartan potassium]: in series [1], the “Relative activity (%)” value stood at 35.58 ± 50.31%. In the case of `OC(CNCC(O)C1CCc2cc(F)ccc2O1)C1CCc2cc(F)ccc2O1` (stereo not drawn) [Nebivolol Hydrochloride], in series [1], the “Relative activity (%)” value amounted to 63.48 ± 3.34%. Same read-out and setting: the figure for `O=c1cc(-c2ccccc2)oc2cc(O)c(O)c(O)c12` [Baicalein] is 97.20 ± 18.86%.

Turning to `Oc1ccc(/C=C/c2cc(O)cc(O)c2)cc1` [resveratrol, Resveratrol], the “suppression of the metabolism of ziprasidone” value in series [1] is given as “over 80%”.

Turning to `CCCCC(=O)N(Cc1ccc(-c2ccccc2-c2nnn[nH]2)cc1)[C@H](C(=O)O)C(C)C` [Valsartan], the “Relative activity (%)” value in series [1] came to 44.50 ± 62.94%. Take `O=c1cc(-c2ccccc2)oc2cc(O)cc(O)c12` [Chrysin]: in series [1], the “Relative activity (%)” value came out at 36.09 ± 19.09%.

With `CC(C)[C@]12O[C@H]1[C@@H]1O[C@]13[C@]1(O[C@H]1C[C@H]1C4=C(CC[C@@]13C)C(=O)OC4)[C@@H]2O` [Triptolide], in series [1], the “Relative activity (%)” value was 87.47 ± 5.70%. With `CC(C)(O)[C@H]1CC[C@@](C)([C@H]2[C@@H](O)C[C@@]3(C)[C@@H]4C[C@H](O[C@@H]5O[C@H](CO)[C@@H](O)[C@H](O)[C@H]5O)[C@H]5C(C)(C)[C@@H](O[C@@H]6OC[C@@H](O)[C@H](O)[C@H]6O)CC[C@@]56C[C@@]46CC[C@]23C)O1` [Astragaloside A], in series [1], the “Relative activity (%)” value is 107.37 ± 18.93%. `CCCSc1nc(N[C@@H]2C[C@H]2c2ccc(F)c(F)c2)c2nnn([C@@H]3C[C@H](OCCO)[C@@H](O)[C@H]3O)c2n1` [Ticagrelor]: in series [1], the “Relative activity (%)” value is on record as 36.84 ± 20.49%. With `COc1ccc(-c2coc3cc(O)ccc3c2=O)cc1O` [Calycosin], the “Relative activity (%)” value in series [1] is on record as 104.22 ± 12.51%. Same read-out and setting: the figure for `CCCCN1CCCCC1C(=O)Nc1c(C)cccc1C` (stereo not drawn) [Bupivacaine hydrochloride] is 104.14 ± 92.28%.
